Counter-ions that a name gives are not always drawn.
Target: human MAP4K4 kinase domain (Homo sapiens (Human), UniProt O95819)
Assay: MAP4K4 kinase activity, CisBio HTRF Transcreener ADP assay
Format: biochemical
Details: ATP at Km (10 μM), 0.5 nM kinase domain, 2 h; read-out: MAP4K4
Source text: Compounds of the present invention were screened for their inhibitory activity against MAP4K4, versus selected off-target hits found with early members of this chemical series. MAP4K4 kinase activity was monitored using the CisBio HTRF Transcreener ADP assay, acompetitive immunoassay with a reproducible Z′>0.6. In the detection step, endogenous ADP and d2-labeled ADP compete for binding an anti-ADP monoclonal antibody labelled with Eu^3+ cryptate. A ratiometric fluorescent read-out is used at 665 and 620 nm. […] Assays were run in Greiner low volume plates with a final reaction volume of 10 μl. The MAP4K4 inhibition data are provided in Table 33 below for selected compounds of the present invention. The data has been categorised based on the IC50 value of the compound as “A”, “B” or “C”.

human MAP4K4 kinase domain, sequence (O95819 25-289): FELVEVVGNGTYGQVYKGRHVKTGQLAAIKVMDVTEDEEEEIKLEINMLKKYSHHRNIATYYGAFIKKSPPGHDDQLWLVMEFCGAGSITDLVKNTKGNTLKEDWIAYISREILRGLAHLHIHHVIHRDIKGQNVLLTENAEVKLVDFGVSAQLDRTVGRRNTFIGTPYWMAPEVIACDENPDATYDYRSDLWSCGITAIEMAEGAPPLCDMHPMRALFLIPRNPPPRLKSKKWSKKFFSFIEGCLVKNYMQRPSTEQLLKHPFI

SMILES | IC50
O=C(Nc1ccc(-c2cn(-c3ccccc3)c3nc[nH]c(=O)c23)cc1)N1CCC(O)C1 (racemic) [compound 39] | ≤ 100 nM
NC(=O)c1cccc(-n2cc(-c3ccccc3)c3c(=O)[nH]cnc32)c1 [Ex-2] | ≤ 100 nM
O=c1[nH]cnc2c1c(-c1ccccc1)cn2-c1ccc(Cn2ccnc2)cc1 [Ex-4] | > 1000 nM
CC(C)(O)COc1ccc(-c2cn(-c3ccccc3)c3nc[nH]c(=O)c23)cc1C#N [Ex-7, 2-(2-Hydroxy-2-methylpropoxy)-5-(4-oxo-7-phenyl-4,7-dihydro-3H-pyrrolo[2,3-d]pyrimidin-5-yl)benzonitrile] | ≤ 100 nM
CC(=O)Nc1cccc(-c2cn(-c3ccccc3)c3nc[nH]c(=O)c23)c1 [Ex-12] | 100 to 1000 nM
O=C(CN1CCOCC1)Nc1ccc(-c2cn(-c3ccccc3)c3nc[nH]c(=O)c23)cc1 [Ex-16] | ≤ 100 nM
CN1CCN(CC(=O)Nc2ccc(-c3cn(-c4ccccc4)c4nc[nH]c(=O)c34)cc2)CC1 [Ex-17] | ≤ 100 nM
CN1CCN(CC(=O)Nc2ccc(-c3cn(-c4cccc(F)c4)c4nc[nH]c(=O)c34)cc2)CC1 [Ex-18] | ≤ 100 nM
CN(C)CCNC(=O)c1cccc(-c2cn(-c3ccccc3)c3nc[nH]c(=O)c23)c1 [Ex-21] | > 1000 nM
CN(C)CC(=O)Nc1cccc(-c2cn(-c3ccccc3)c3nc[nH]c(=O)c23)c1 [Ex-24] | > 1000 nM
O=C1CCCN1c1ccc(-c2cn(-c3cccc(F)c3)c3nc[nH]c(=O)c23)cc1 [Ex-25] | ≤ 100 nM
COC(COc1ccc(-c2cn(-c3ccccc3)c3nc[nH]c(=O)c23)cc1)CN1CCOCC1 (centres unmarked) [Ex-28] | ≤ 100 nM
CN(C)Cc1cccc(-c2cn(-c3ccccc3)c3nc[nH]c(=O)c23)c1 [Ex-31] | > 1000 nM
CN(Cc1cccc(-c2cn(-c3ccccc3)c3nc[nH]c(=O)c23)c1)C(=O)OC(C)(C)C [Ex-32] | 100 to 1000 nM
CN(C)CCN1CCN(c2ccc(-c3cn(-c4ccccc4)c4nc[nH]c(=O)c34)cc2)C1=O [Ex-33] | ≤ 100 nM
O=c1[nH]cnc2c1c(-c1c(F)cccc1F)cn2-c1ccccc1 [Ex-34] | 100 to 1000 nM
CN1CCN(CCCOc2ccc(-c3cn(-c4ccccc4)c4nc[nH]c(=O)c34)cc2)CC1 [Ex-35] | ≤ 100 nM

SMILES | IC50
CC(C)(O)CN1CCN(c2ccc(-c3cn(-c4ccccc4)c4nc[nH]c(=O)c34)cc2)C1=O [Ex-37] | ≤ 100 nM
O=C1COCCN1CC(O)COc1ccc(-c2cn(-c3ccccc3)c3nc[nH]c(=O)c23)cc1 (centres unmarked) [Ex-38] | ≤ 100 nM
COc1cccc(-n2cc(-c3ccc(OCC(O)CN4CCOCC4)cc3)c3c(=O)[nH]cnc32)c1 (centres unmarked) [Ex-41, 5-[4-(2-Hydroxy-3-morpholin-4-yl-propoxy)-phenyl]-7-(3-methoxy-phenyl)-3,7-dihydro-pyrrolo[2,3-d]pyrimidin-4-one] | ≤ 100 nM
O=c1[nH]cnc2c1c(-c1ccc(OCC(O)CN3CCOCC3)cc1)cn2-c1ccccc1 (centres unmarked) [Ex-42] | ≤ 100 nM
O=c1[nH]cnc2c1c(-c1ccc(OCC(O)CN3CCOCC3)cc1)cn2-c1cccc(F)c1 (centres unmarked) [Ex-43] | ≤ 100 nM
O=C(NCCO)c1cccc(-c2cn(-c3ccccc3)c3nc[nH]c(=O)c23)c1 [Ex-44] | > 1000 nM
O=c1[nH]cnc2c1c(-c1cccc(OCCO)c1)cn2-c1ccccc1 [Ex-47] | 100 to 1000 nM
CN1CCN(CC(O)COc2ccc(-c3cn(-c4ccccc4)c4nc[nH]c(=O)c34)cc2)CC1 (centres unmarked) [Ex-48] | ≤ 100 nM
N#Cc1cc(-c2cn(-c3ccccc3)c3nc[nH]c(=O)c23)ccc1OCC(O)CN1CCOCC1 (centres unmarked) [Ex-49] | ≤ 100 nM
CN1CCN(CC(O)COc2ccc(-c3cn(-c4ccccc4)c4nc[nH]c(=O)c34)cc2)CC1=O (centres unmarked) [Ex-50] | ≤ 100 nM
O=c1[nH]cnc2c1c(-c1ccc(OCC(O)CN3CCS(=O)(=O)CC3)cc1)cn2-c1ccccc1 (centres unmarked) [Ex-51] | ≤ 100 nM
O=C1N(CCO)CCN1c1ccc(-c2cn(-c3ccccc3)c3nc[nH]c(=O)c23)cc1 [Ex-55, 5-{4-[3-(2-Hydroxy-ethyl)-2-oxo-imidazolidin-1-yl]-phenyl}-7-phenyl-3,7-dihydro-pyrrolo[2,3-d]pyrimidin-4-one] | ≤ 100 nM
Cc1cc(OCCO)ccc1-c1cn(-c2ccccc2)c2nc[nH]c(=O)c12 [Ex-57] | ≤ 100 nM
CC(C)(C)OC(=O)NCCOc1ccc(-c2cn(-c3ccccc3)c3nc[nH]c(=O)c23)cc1 [Ex-63] | 100 to 1000 nM
COCCOc1ccc(-c2cn(-c3cccc(F)c3)c3nc[nH]c(=O)c23)cc1 [Ex-65] | ≤ 100 nM
CC(=O)NCc1cccc(-c2cn(-c3ccccc3)c3nc[nH]c(=O)c23)c1 [Ex-71, N-[3-(4-Oxo-7-phenyl-4,7-dihydro-3H-pyrrolo[2,3-d]pyrimidin-5-yl)-benzyl]-acetamide] | 100 to 1000 nM

Results, then the compound that gave them:

IC50 | SMILES
100 to 1000 nM | O=C(O)c1ccc(-n2cc(-c3ccccc3)c3c(=O)[nH]cnc32)cc1 [Ex-1, 4-(4-Oxo-5-phenyl-3,4-dihydro-pyrrolo[2,3-d]pyrimidin-7-yl)-benzoic acid]
> 1000 nM | CS(=O)(=O)c1ccc(-n2cc(-c3ccccc3)c3c(=O)[nH]cnc32)cc1 [Ex-3]
> 1000 nM | CNC(=O)c1ccc(-n2cc(-c3ccccc3)c3c(=O)[nH]cnc32)cc1 [Ex-5, N-Methyl-4-(4-oxo-5-phenyl-3,4-dihydro-pyrrolo[2,3-d]pyrimidin-7-yl)-benzamide]
100 to 1000 nM | NC(=O)c1ccc(-n2cc(-c3ccccc3)c3c(=O)[nH]cnc32)cc1 [Ex-6]
≤ 100 nM | N#Cc1cccc(-c2cn(-c3ccccc3)c3nc[nH]c(=O)c23)c1 [Ex-8]
≤ 100 nM | CC(=O)Nc1ccc(-c2cn(-c3ccccc3)c3nc[nH]c(=O)c23)cc1 [Ex-9]
≤ 100 nM | CCOC(=O)Cc1ccc(-c2cn(-c3ccccc3)c3nc[nH]c(=O)c23)cc1 [Ex-10, [4-(4-oxo-7-phenyl-4,7-dihydro-3H-pyrrolo[2,3-d]pyrimidin-5-yl)-phenyl]-acetic acid ethyl ester]
≤ 100 nM | N#Cc1ccc(-c2cn(-c3ccccc3)c3nc[nH]c(=O)c23)cc1 [Ex-11, 4-(4-oxo-7-phenyl-4,7-dihydro-3H-pyrrolo[2,3-d]pyrimidin-5-yl)-benzonitrile]
≤ 100 nM | O=c1[nH]cnc2c1c(-c1ccc(Cn3ccnc3)cc1)cn2-c1ccccc1 [Ex-13]
≤ 100 nM | O=C(CO)Nc1ccc(-c2cn(-c3ccccc3)c3nc[nH]c(=O)c23)cc1 [Ex-14]
≤ 100 nM | CN(C)CCOc1ccc(-c2cn(-c3ccccc3)c3nc[nH]c(=O)c23)cc1 [Ex-15]
≤ 100 nM | O=C1CCCN1c1ccc(-c2cn(-c3ccccc3)c3nc[nH]c(=O)c23)cc1 [Ex-19]
100 to 1000 nM | O=C1CCCCN1c1ccc(-c2cn(-c3ccccc3)c3nc[nH]c(=O)c23)cc1 [Ex-20]
≤ 100 nM | COc1ccc(-c2cn(-c3ccccc3)c3nc[nH]c(=O)c23)cc1 [Ex-23]
≤ 100 nM | CN(C)CCCOc1ccc(-c2cn(-c3ccccc3)c3nc[nH]c(=O)c23)cc1 [Ex-26]
≤ 100 nM | CN1CCN(c2ccc(-c3cn(-c4ccccc4)c4nc[nH]c(=O)c34)cc2)C1=O [Ex-29]
100 to 1000 nM | O=c1[nH]cnc2c1c(-c1ccccc1Cl)cn2-c1ccccc1 [Ex-30]
≤ 100 nM | O=c1[nH]cnc2c1c(-c1ccc(OCCCO)cc1)cn2-c1ccccc1 [Ex-36]
≤ 100 nM | O=c1[nH]cnc2c1c(-c1cccc(CO)c1)cn2-c1ccccc1 [Ex-45]

IC50 | SMILES
≤ 100 nM | CN(C)CC(O)COc1ccc(-c2cn(-c3ccccc3)c3nc[nH]c(=O)c23)cc1 (centres unmarked) [Ex-46]
≤ 100 nM | C[C@@H](O)COc1ccc(-c2cn(-c3ccccc3)c3nc[nH]c(=O)c23)cc1 [Ex-52]
≤ 100 nM | C[C@H](O)COc1ccc(-c2cn(-c3ccccc3)c3nc[nH]c(=O)c23)cc1 [Ex-53]
≤ 100 nM | O=c1[nH]cnc2c1c(-c1ccc(N3CCCC3)cc1)cn2-c1ccccc1 [Ex-62]
≤ 100 nM | CC(C)(O)COc1ccc(-c2cn(-c3ccccc3)c3nc[nH]c(=O)c23)cc1 [Ex-64]
100 to 1000 nM | O=c1[nH]cnc2c1c(-c1ccccc1F)cn2-c1ccccc1 [Ex-66]
100 to 1000 nM | CN1CC(COc2ccc(-c3cn(-c4ccccc4)c4nc[nH]c(=O)c34)cc2)C1 [Ex-67]
≤ 100 nM | O=c1[nH]cnc2c1c(-c1ccc(OCC(O)CO)cc1)cn2-c1ccccc1 (centres unmarked) [Ex-68]
≤ 100 nM | O=c1[nH]cnc2c1c(-c1ccc(OCC3(O)COC3)cc1)cn2-c1ccccc1 [Ex-69]
≤ 100 nM | O=c1[nH]cnc2c1c(-c1ccc(OCCO)cc1)cn2-c1ccccc1 [Ex-70]
100 to 1000 nM | NCc1ccc(-c2cn(-c3ccccc3)c3nc[nH]c(=O)c23)cc1 [Ex-74, 5-(4-Aminomethyl-phenyl)-7-phenyl-3,7-dihydro-pyrrolo[2,3-d]pyrimidin-4-one]
100 to 1000 nM | NCc1cccc(-c2cn(-c3ccccc3)c3nc[nH]c(=O)c23)c1 [Ex-75]
≤ 100 nM | NCC(=O)Nc1ccc(-c2cn(-c3ccccc3)c3nc[nH]c(=O)c23)cc1 [Ex-76]
≤ 100 nM | CNCC(=O)Nc1ccc(-c2cn(-c3ccccc3)c3nc[nH]c(=O)c23)cc1 [Ex-77]
≤ 100 nM | NCCOc1ccc(-c2cn(-c3ccccc3)c3nc[nH]c(=O)c23)cc1 [Ex-78]
> 1000 nM | CNCc1cccc(-c2cn(-c3ccccc3)c3nc[nH]c(=O)c23)c1 [Ex-79]
≤ 100 nM | O=c1[nH]cnc2c1c(-c1ccc(OCC3CNC3)cc1)cn2-c1ccccc1 [Ex-80, 5-[4-(Azetidin-3-ylmethoxy)-phenyl]-7-phenyl-3,7-dihydro-pyrrolo[2,3-d]pyrimidin-4-one-formate salt]
≤ 100 nM | CNCCC(=O)Nc1ccc(-c2cn(-c3ccccc3)c3nc[nH]c(=O)c23)cc1 [Ex-81]
≤ 100 nM | O=C(O)Cc1ccc(-c2cn(-c3ccccc3)c3nc[nH]c(=O)c23)cc1 [Ex-82, [4-(4-Oxo-7-phenyl-4,7-dihydro-3H-pyrrolo[2,3-d]pyrimidin-5-yl)-phenyl]-acetic acid]
